The target of one data set is T1, rat P2X3 receptor (Rattus norvegicus, UniProt P49654).
T1 construct: expressed in transfected cells; host or cells: CHO-K1
T1 sequence (P49654 1-397): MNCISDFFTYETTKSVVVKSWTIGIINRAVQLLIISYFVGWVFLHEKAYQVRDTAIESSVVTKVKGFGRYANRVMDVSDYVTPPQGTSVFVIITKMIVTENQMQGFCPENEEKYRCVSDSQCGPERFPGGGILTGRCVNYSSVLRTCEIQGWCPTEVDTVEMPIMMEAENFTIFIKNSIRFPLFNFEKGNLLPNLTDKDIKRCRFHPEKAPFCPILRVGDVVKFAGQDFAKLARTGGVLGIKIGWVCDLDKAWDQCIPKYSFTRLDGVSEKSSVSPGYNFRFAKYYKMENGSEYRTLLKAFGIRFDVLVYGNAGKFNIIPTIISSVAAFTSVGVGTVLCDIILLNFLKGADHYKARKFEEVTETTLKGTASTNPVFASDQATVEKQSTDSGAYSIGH
Put plainly: P2X3 FLIPR (Fluorometric Imaging Plate Reader) assay, CHO-K1 cells, α,β-meATP-evoked calcium fluorescence. It is filed as cell-based. Particulars: agonist α,β-meATP 1 μM. The protocol:
(§1) CHO-K1 cells were transfected with cloned rat P2X3 or human P2X2/3 receptor subunits and passaged in flasks. 18-24 hours before the FLIPR experiment, cells were released from their flasks, centrifuged, and resuspended in nutrient medium at 2.5×10^5 cells/ml. The cells were aliquoted into black-walled 96-well plates at a density of 50,000 cells/well and incubated overnight in 5% CO2 at 37° C. On the day of the experiment, cells were washed in FLIPR buffer (calcium- and magnesium-free Hank's balanced salt solution, 10 mM HEPES, 2 mM CaCl2, 2.5 mM probenecid; FB). Each well received 100 μl FB and 100 μl of the fluorescent dye Fluo-3 AM [2 μM final conc.]. […]
(§2) Test compounds (dissolved in DMSO at 10 mM and serially diluted with FB) or vehicle were added to each well (25 μl of a 4× solution) and allowed to equilibrate for 20 minutes at room temperature. […] Fluorescence was measured for an additional 2 minutes at 1 second intervals after agonist addition. A final addition of ionomycin (5 μM, final concentration) was made to each well of the FLIPR test plate to establish cell viability and maximum fluorescence of dye-bound cytosolic calcium. Peak fluorescence in response to the addition of α,β-meATP (in the absence and presence of test compounds) was measured and inhibition curves generated using nonlinear regression. […]

A further data set has as its target T2, human P2X2/3 receptor (Homo sapiens, UniProt P56373+Q9UBL9).
T2 construct: expressed in transfected cells; host or cells: CHO-K1
T2 sequence (Q9UBL9 1-471): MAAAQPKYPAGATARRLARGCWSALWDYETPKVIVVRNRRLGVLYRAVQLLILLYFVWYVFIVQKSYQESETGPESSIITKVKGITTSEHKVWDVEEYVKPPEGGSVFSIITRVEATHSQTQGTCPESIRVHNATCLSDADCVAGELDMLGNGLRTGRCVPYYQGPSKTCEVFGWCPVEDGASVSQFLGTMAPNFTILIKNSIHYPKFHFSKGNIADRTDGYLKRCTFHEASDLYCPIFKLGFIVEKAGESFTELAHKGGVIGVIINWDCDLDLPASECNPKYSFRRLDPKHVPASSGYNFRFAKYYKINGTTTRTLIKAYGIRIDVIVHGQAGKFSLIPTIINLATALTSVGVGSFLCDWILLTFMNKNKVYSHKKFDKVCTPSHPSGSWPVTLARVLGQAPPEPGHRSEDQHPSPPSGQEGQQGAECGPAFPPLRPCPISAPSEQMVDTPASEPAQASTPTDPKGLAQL
T2 sequence (P56373 1-397): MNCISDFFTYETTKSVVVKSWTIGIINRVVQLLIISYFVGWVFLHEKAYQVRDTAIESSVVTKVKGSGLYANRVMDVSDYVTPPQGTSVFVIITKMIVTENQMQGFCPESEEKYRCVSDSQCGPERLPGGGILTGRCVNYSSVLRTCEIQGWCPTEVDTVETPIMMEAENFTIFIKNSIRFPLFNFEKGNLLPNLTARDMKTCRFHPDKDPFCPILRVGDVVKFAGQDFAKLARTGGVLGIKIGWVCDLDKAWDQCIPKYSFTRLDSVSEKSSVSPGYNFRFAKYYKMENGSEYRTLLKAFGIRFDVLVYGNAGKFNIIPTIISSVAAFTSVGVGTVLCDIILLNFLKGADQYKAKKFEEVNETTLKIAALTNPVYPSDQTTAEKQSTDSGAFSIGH
Description: P2X2/3 FLIPR (Fluorometric Imaging Plate Reader) assay, CHO-K1 cells, α,β-meATP-evoked calcium fluorescence. It is filed as cell-based. Particulars: agonist α,β-meATP 5 μM. The protocol:
as §1, §2

The melting point is the temperature of the solid-liquid transition. With `COc1cc(C(C)C)c(Oc2cnc(NC(CO)CO)nc2N)cc1S(N)(=O)=O` [2a, 5-[4-Amino-2-(2-hydroxy-1-hydroxymethyl-ethylamino)-pyrimidin-5-yloxy]-4-isopropyl-2-methoxy-benzenesulfonamide], the melting point fell in the range of 180 to 180.9 °C. Consider `C#Cc1cc(Oc2cnc(N)nc2N)c(C(C)C)cc1O` [4-(2,4-Diamino-pyrimidin-5-yloxy)-2-ethynyl-5-isopropyl-phenol], for which the “pIC50 for the P2X3 receptor” value on rat P2X3 receptor is listed as “approximately 8.24”. Besides, on human P2X2/3 receptor, the “pIC50 for the P2X2/3 receptor” value is on record as “approximately 7.99”. On to `COc1cc(C(C)C)c(Oc2cnc(N)nc2N)cc1I` [1b, 5-(5-Iodo-2-isopropyl-4-methoxy-phenoxy)-pyrimidine-2,4-diamine, reference compound], for which the IC50 was 0.00977 µM on rat P2X3 receptor (read-out: pIC50 for the P2X3 receptor (converted)) and 0.0417 µM on human P2X2/3 receptor (read-out: pIC50 for the P2X2/3 receptor (converted)). `C#Cc1cc(Oc2cnc(NC(CO)CO)nc2N)c(C(C)C)cc1OC` [4a, 2-[4-Amino-5-(5-ethynyl-2-isopropyl-4-methoxy-phenoxy)-pyrimidin-2-ylamino]-propane-1,3-diol] displayed a melting point of 135.5 to 139.1 °C.

These data come from patent US20080207655A1, “Diaminopyrimidines as P2X3 and P2X2/3 modulators” (Roche Palo Alto LLC, priority 2007, published 2008).
